The subject of test [1] is HepG2 cells. The experiment in a line: Acute extracellular flux (AEF) assay in intact HepG2 cells (Seahorse XFe96). In kind it is cell-based, human. The following applies: Homo sapiens.
The test system of another test is CI. On the set-up: method as in PMID 21120605. The following applies: 50 µM, 18 h incubation, CHO cells; cited from earlier work.
Test [2] concerns HepG2 cells. The experiment in a line: Glu/Gal assay: cellular ATP (CellTiter-Glo) after 24 h in glucose or galactose media. The following applies: Homo sapiens, HepG2, 24 h. (In ATP-based viability assays light output follows the ATP content of the culture.)

Structures are written as SMILES. Some results are limits rather than exact numbers.

For orientation: AC50 means the concentration at which the activity in the assay is half-maximal. Turning to `CN1c2ccccc2C(NCCCCCCC(=O)O)c2ccc(Cl)cc2S1(=O)=O` (stereo not drawn) [Tianeptine], the concentration at half-maximal activity (AC50) was over 100 µM in the test with HepG2 cells [1] (HepG2, read-out: AC50 ATP Production); over 100 µM in the test with HepG2 cells [1] (HepG2, read-out: AC50 ECAR); over 100 µM in the test on HepG2 cells [1] (HepG2, read-out: AC50 OCR); over 100 µM in the test with HepG2 cells [1] (HepG2, read-out: AC50 Proton Leak); 21.6 µM with HepG2 cells [1] (HepG2, read-out: AC50 Reserve Capacity); 57.6 µM in the test with HepG2 cells [2] (read-out: Gal AC50). Also, the AC50 in the test with HepG2 cells [2] (read-out: Glu AC50) is over 100 µM. Moreover, the minimal effective concentration in the test with HepG2 cells [1] (HepG2, read-out: MEC ATP Production) came to 40.3 µM; with HepG2 cells [1] (HepG2, read-out: MEC OCR), 5.5 µM; with HepG2 cells [1] (HepG2, read-out: MEC Reserve Capacity) it was 0.182 µM; in the test on HepG2 cells [2] (read-out: Gal MEC) it was 41.8 µM. Besides, in the test with CI, the “inhibition of CI activity” value is recorded as about 50%.

The record behind these values is article PMC10741027, “Risk Assessment of Psychotropic Drugs on Mitochondrial Function Using In Vitro Assays” (Biomedicines, 2023).
